In patent US5140018A, “1,3,2-benzodithiazole-1-oxide compounds” (Abbott Laboratories, priority 1991, dated 1992):
≈ marks a conversion by molar mass, not a printed value.

Key:
Assay type in all cases: cell-based
[1] = tested on: Candida tropicalis NRRL-Y-112; assay: In vitro antifungal MIC, Candida tropicalis NRRL-Y-112; settings: NRRLY112; Candida tropicalis NRRL-Y-112; 35°-37° C., 48 hours; read-out: MIC
Protocol: (§1) The in vitro antifungal activity of the compounds of the present invention against a variety of fungiwas determined as follow: Test medium was prepared by dissolving first 5 g of dextrose and then 6.7 g of Bacto Yeast Nitrogen Base® (commercially available from Difco Laboratories) in 100 mL of distilled water. The solution was filter-sterilized and diluted 1:10 with 0.01M pH 8.0 phosphate buffer solution, and the final pH of the medium adjusted to about pH 7.0 when necessary with either 0.1N hydrochloric acid solution of 0.1N sodium hydroxide solution. […] These concentrated stock solutions were diluted to a concentration of 200 μg/mL (twice the highest concentration desired for testing) with the test medium. Amphotericin B, similarly prepared, was used as a reference antifungal agent.
(§2) The test organisms were then inoculated into test tubes containing approximately 3 to 10 mL of test medium and the test tubes incubated overnight at 37° C. A sample of each overnight culture was placed in a test tube and diluted using the test medium until a reading of 95% transmittance was obtained in a conventional UV/visible spectrophotometer set to 560 nm. The adjusted cultures were then diluted 1:50 with test medium. These diluted cultures served as the inocula for the assays which follow and were used within 15 minutes of preparation.
(§3) Next, 2-fold serial dilutions of each test compound in test medium were prepared in a 96-well microtiter plate using calibrated microdiluters attached to an automatic (hand-held) diluter (available from Dynatech Laboratories).
(§4) Using sterile calibrated droppers or a multi-point dispenser, the diluted inoculum suspension was added to each of the wells in the plate. When inoculation was complete, the microtiter tray was covered with a plastic plate sealer to minimize evaporation. After the plate had been sealed, a hole was made above each well with a sterile 26-gauge syringe needle in order to allow gas exchange. If plate sealers were not available, the microtiter trays were stacked in groups of five or less with an empty tray on top. The microtiter trays were then incubated in a humidified chamber at 35°-37° C. for 48 hours or until growth was visible in the growth control wells.
(§5) The minimum inhibitory concentration (MIC) was defined as the lowest concentration of test compound yielding no growth, a slight haze or sparsely isolated colonies on the inoculum spot as compared to the growth control containing no test compound.

[2] = tested on: Candida albicans CCH 442; assay: In vitro antifungal MIC, Candida albicans CCH 442; settings: CCH442; Candida albicans CCH 442; 35°-37° C., 48 hours; read-out: MIC
Protocol: as §1, §2, §3, §4, §5

[3] = tested on: Aspergillus niger ATCC 16404; assay: In vitro antifungal MIC, Aspergillus niger ATCC 16404; settings: ATCC16404; Aspergillus niger ATCC 16404; 35°-37° C., 48 hours; read-out: MIC
Protocol: as §1, §2, §3, §4, §5

[4] = tested on: Candida albicans ATCC 62376; assay: In vitro antifungal MIC, Candida albicans ATCC 62376; settings: ATCC62376; Candida albicans ATCC 62376; 35°-37° C., 48 hours; read-out: MIC
Protocol: as §1, §2, §3, §4, §5

[5] = tested on: Candida albicans 579A; assay: In vitro antifungal MIC, Candida albicans 579A; settings: Candida albicans 579A; 35°-37° C., 48 hours; read-out: MIC
Protocol: as §1, §2, §3, §4, §5

[6] = tested on: Candida albicans ATCC 38247; assay: In vitro antifungal MIC, Candida albicans ATCC 38247; settings: ATCC38247; Candida albicans ATCC 38247; 35°-37° C., 48 hours; read-out: MIC
Protocol: as §1, §2, §3, §4, §5

[7] = tested on: Candida kefyr ATCC 28838; assay: In vitro antifungal MIC, Candida kefyr ATCC 28838; settings: Kluyveromyces marxianus, ATCC28838; Candida kefyr ATCC 28838; 35°-37° C., 48 hours; read-out: MIC
Protocol: as §1, §2, §3, §4, §5

[8] = tested on: Torulopsis glabrata ATCC 15545; assay: In vitro antifungal MIC, Torulopsis glabrata ATCC 15545; settings: Nakaseomyces glabratus, ATCC15545; Torulopsis glabrata ATCC 15545; 35°-37° C., 48 hours; read-out: MIC
Protocol: as §1, §2, §3, §4, §5

[9] = tested on: Cryptococcus albidus ATCC 34140; assay: In vitro antifungal MIC, Cryptococcus albidus ATCC 34140; settings: Naganishia albida, ATCC34140; Cryptococcus albidus ATCC 34140; 35°-37° C., 48 hours; read-out: MIC
Protocol: as §1, §2, §3, §4, §5

[10] = tested on: Candida albicans ATCC 10231; assay: In vitro antifungal MIC, Candida albicans ATCC 10231; settings: ATCC10231; Candida albicans ATCC 10231; 35°-37° C., 48 hours; read-out: MIC
Protocol: as §1, §2, §3, §4, §5

Compound | MIC [1] | MIC [2] | MIC [3] | MIC [4] | MIC [5] | MIC [6] | MIC [7] | MIC [8] | MIC [9] | MIC [10]
[O-][S+]1c2ccccc2SN1c1ccccc1 (stereo not drawn) [Example 30, 2-phenyl-1,3,2-benzodithiazole-1-oxide] | 25 µg/mL (≈ 101 µM) | 25 µg/mL (≈ 101 µM) | 12.5 µg/mL (≈ 50.5 µM) | 25 µg/mL (≈ 101 µM) | 12.5 µg/mL (≈ 50.5 µM) | 25 µg/mL (≈ 101 µM) | 12.5 µg/mL (≈ 50.5 µM) | 25 µg/mL (≈ 101 µM) | 25 µg/mL (≈ 101 µM) | 25 µg/mL (≈ 101 µM)
COC(=O)CCCCCCCN1Sc2ccccc2[S+]1[O-] (stereo not drawn) [Example 26] | 3.12 µg/mL (≈ 9.53 µM) | 3.12 µg/mL (≈ 9.53 µM) | 0.78 µg/mL (≈ 2.38 µM) | 1.56 µg/mL (≈ 4.76 µM) | 3.12 µg/mL (≈ 9.53 µM) | 12.5 µg/mL (≈ 38.2 µM) | 0.78 µg/mL (≈ 2.38 µM) | 3.12 µg/mL (≈ 9.53 µM) | 6.25 µg/mL (≈ 19.1 µM) | 1.56 µg/mL (≈ 4.76 µM)
CCCCCCCCCN1Sc2ccccc2[S+]1[O-] (stereo not drawn) [Example 7, 2-n-nonyl-1,3,2-benzodithiazole-1-oxide] | 1.56 µg/mL (≈ 5.24 µM) | 1.56 µg/mL (≈ 5.24 µM) | 0.78 µg/mL (≈ 2.62 µM) | 1.56 µg/mL (≈ 5.24 µM) | 0.78 µg/mL (≈ 2.62 µM) | 1.56 µg/mL (≈ 5.24 µM) | 0.78 µg/mL (≈ 2.62 µM) | 1.56 µg/mL (≈ 5.24 µM) | 6.25 µg/mL (≈ 21 µM) | 1.56 µg/mL (≈ 5.24 µM)
O=C(O)COCCN1Sc2ccccc2[S+]1[O-] (stereo not drawn) [Example 22, 2-(2-(1,3,2-benzodithiazole-2-yl-1-oxide)ethyloxy) acetic acid] | 100 µg/mL (≈ 366 µM) | 100 µg/mL (≈ 366 µM) | 25 µg/mL (≈ 91.5 µM) | 100 µg/mL (≈ 366 µM) | 100 µg/mL (≈ 366 µM) | 50 µg/mL (≈ 183 µM) | 3.12 µg/mL (≈ 11.4 µM) | 100 µg/mL (≈ 366 µM) | 100 µg/mL (≈ 366 µM) | 100 µg/mL (≈ 366 µM)
C#CCN1Sc2ccccc2[S+]1[O-] (stereo not drawn) [Example 12, 2-propargyl-1,3,2-benzodithiazole-1-oxide] | 1.56 µg/mL (≈ 7.45 µM) | 0.78 µg/mL (≈ 3.73 µM) | 1.56 µg/mL (≈ 7.45 µM) | 0.39 µg/mL (≈ 1.86 µM) | 0.78 µg/mL (≈ 3.73 µM) | – | 0.78 µg/mL (≈ 3.73 µM) | 0.39 µg/mL (≈ 1.86 µM) | 1.56 µg/mL (≈ 7.45 µM) | 0.39 µg/mL (≈ 1.86 µM)
CCCCCCCN1Sc2ccccc2[S+]1[O-] (stereo not drawn) [Example 5, 2-n-heptyl-1,3,2-benzodithiazole-1-oxide] | 0.78 µg/mL (≈ 2.89 µM) | 0.78 µg/mL (≈ 2.89 µM) | 0.39 µg/mL (≈ 1.45 µM) | 0.78 µg/mL (≈ 2.89 µM) | 0.2 µg/mL (≈ 0.742 µM) | 0.78 µg/mL (≈ 2.89 µM) | 0.39 µg/mL (≈ 1.45 µM) | 0.39 µg/mL (≈ 1.45 µM) | 3.12 µg/mL (≈ 11.6 µM) | 0.39 µg/mL (≈ 1.45 µM)
CCCN1Sc2ccccc2[S+]1[O-] (stereo not drawn) [Example 3, 2-n-propyl-1,3,2-benzodithiazole-1-oxide] | 0.78 µg/mL (≈ 3.66 µM) | 0.78 µg/mL (≈ 3.66 µM) | 6.25 µg/mL (≈ 29.3 µM) | 0.78 µg/mL (≈ 3.66 µM) | 0.78 µg/mL (≈ 3.66 µM) | 3.12 µg/mL (≈ 14.6 µM) | 0.2 µg/mL (≈ 0.938 µM) | 0.78 µg/mL (≈ 3.66 µM) | 3.12 µg/mL (≈ 14.6 µM) | 0.78 µg/mL (≈ 3.66 µM)
[O-][S+]1c2ccccc2SN1Cc1ccccc1 (stereo not drawn) [Example 35, 2-benzyl-1,3,2-benzodithiazole-1-oxide] | 1.56 µg/mL (≈ 5.97 µM) | 0.78 µg/mL (≈ 2.98 µM) | 0.39 µg/mL (≈ 1.49 µM) | 0.78 µg/mL (≈ 2.98 µM) | 0.78 µg/mL (≈ 2.98 µM) | 6.25 µg/mL (≈ 23.9 µM) | 0.39 µg/mL (≈ 1.49 µM) | 1.56 µg/mL (≈ 5.97 µM) | 6.25 µg/mL (≈ 23.9 µM) | 0.78 µg/mL (≈ 2.98 µM)
CCCCCCCCN1Sc2ccccc2[S+]1[O-] (stereo not drawn) [Example 6, 2-n-octyl-1,3,2-benzodithiazole-1-oxide] | 0.2 µg/mL (≈ 0.706 µM) | 0.2 µg/mL (≈ 0.706 µM) | 0.2 µg/mL (≈ 0.706 µM) | 0.1 µg/mL (≈ 0.353 µM) | 0.2 µg/mL (≈ 0.706 µM) | 0.39 µg/mL (≈ 1.38 µM) | 0.1 µg/mL (≈ 0.353 µM) | 0.2 µg/mL (≈ 0.706 µM) | 3.12 µg/mL (≈ 11 µM) | 0.2 µg/mL (≈ 0.706 µM)
[O-][S+]1c2ccccc2SN1C1C2CC3CC(C2)CC1C3 (stereo not drawn) [Example 29, 2-(2-adamantyl)-1,3,2-benzodithiazole-1-oxide] | 12.5 µg/mL (≈ 40.9 µM) | 25 µg/mL (≈ 81.8 µM) | 3.12 µg/mL (≈ 10.2 µM) | 6.25 µg/mL (≈ 20.5 µM) | 12.5 µg/mL (≈ 40.9 µM) | 50 µg/mL (≈ 164 µM) | 3.12 µg/mL (≈ 10.2 µM) | 12.5 µg/mL (≈ 40.9 µM) | 25 µg/mL (≈ 81.8 µM) | 6.25 µg/mL (≈ 20.5 µM)
